{
  "source": "patent US11458198B2",
  "about": "“HPV epitopes targeted by T cells infiltrating cervical malignancies for use in vaccines” (Academisch Ziekenhuis Leiden H.O.D.N. LUMC, priority 2007, dated 2022)",
  "format_in_all_cases": "cell-based, human",
  "key": {"[1]": {"tested_on": "skin test infiltrating lymphocytes", "test": "Intracellular cytokine staining of T cell cultures from positive skin reaction sites", "description": "Skin tests, based on Delayed Type Hypersensitivity reactions (DTH), can be used as a sensitive and simple method for in vivo measurement of HPV-specific cellular immune responses (Hopfl, 2000; Hopfl, 1991). The skin test preparations consisted of 8 pools of long clinical-grade synthetic peptides spanning the whole HPV 16 E6 and E7 protein and the most immunogenic regions of HPV 16 E2 protein (de Jong, 2004). These clinical grade peptides were produced in the interdivisional GMP-Facility of the LUMC. Each pool of the skin test consisted of 2 or 3 synthetic peptides, indicated by the first and last amino acid of the region in the protein covered by the peptides. Pool 1: E231-60, E246-75, Pool 2: E2301-330, E2316-345, Pool 3: E61-31, E619-50 (SEQ ID NO: 28), Pool 4: E641-65 (SEQ ID NO: 29), E655-80 (SEQ ID NO: 30), E671-95 (SEQ ID NO: 31), Pool 5: E685-109 (SEQ ID NO: 32), E691-122 (SEQ ID NO: 33), Pool 6: E6109-140 (SEQ ID NO: 34), E6127-158 (SEQ ID NO: 35), Pool 7: E71-35 (SEQ ID NO: 36), E722-56 (SEQ ID NO: 37), Pool 8: E743-77 (SEQ ID NO: 38), E764-98 (SEQ ID NO: 39). Pool 3 comprises Seq ID 5, 22 and 23. Pool 4 comprises Seq IDs 7-9. Pool 5 comprises Seq IDs 11 and 12. Pool 6 comprises Seq IDs 13, 14, 24 and 25. Pool 7 comprises Seq ID 15 and 26. Pool 8 comprises Seq IDs 16 and 17. Per peptide pool 0.05 ml of 0.2 mg/ml peptides in 16% DMSO in 20 mM isotonic phosphate buffer (10 μg/peptide) was injected intracutaneously. The pools of peptides and a negative control (dissolvent only) were injected separately at individual skin test sites of the upper arm. Skin test sites were inspected at least three times, at 72 hours and 7 days after injection (Hopfl) of the peptides and at 3 weeks following the first report of a very late skin reaction in one of the first healthy subjects. […]\nThe specificity and character of the T cell cultures derived from positive skin reaction sites was tested by ICS as reported previously (de Jong, 2005). […] After incubation at 4° C., the cells were washed, fixed with 1% paraformaldehyde and analyzed by flow cytrometry (FACSscan, BD Biosciences)"}, "[2]": {"tested_on": "HPV-specific T cell cultures", "test": "Intracellular cytokine staining for IFNγ, type of T cell responding", "conditions": "TIL culture of C265", "protocol": "(§1) Enumeration of IFNγ producing T cells as measured by intracellular cytokine staining was performed as described earlier (de Jong et al. 2005). Briefly, APC were loaded with cognate peptide or recombinant protein and incubated with T cell cultures. After 1 hour of incubation 10 μg/ml Brefeldin A (Sigma) was added and incubated overnight. Hereafter the cells were fixed with 4% paraformaldehyde (Sigma) and permeabilized with 0.1% Saponin. The samples were subsequently stained with CD4-APC, CD8-PerCP and IFNγ-PE and analyzed by flow cytometry. The minimal peptide recognized by CD8 T cells was analysed by IFNγ ELISPOT (van der Burg et al. 2001, Welters et al. 2006, de Jong et al. 2002). CD8 T cell lines were seeded in triplicate wells at a density of 2×104 on a Multiscreen 96-well plate (Millipore, Etten-Leur, The Netherlands) coated with an IFNγ catch antibody (Mabtech. Nacha, Sweden). The microcultures were stimulated with 5 μg/ml 10-mer peptides and incubated overnight. Analysis of HLA restriction of CD8 T cells was performed using 5 μg/ml 10-mer peptide pulsed PBMC or B-LCL co-cultured with equal numbers of T cells. IFNγ specific spots were stained according to the instructions of the manufacturer (Mabtech). The number of spots was analysed on a fully automated computer assisted video imaging system (BIOSYS)."}, "[3]": {"tested_on": "HPV-specific T cells", "test": "Fine specificity with single peptides (proliferation and IFNγ production)", "conditions": "patients C265, C334, C284, C228 respectively", "protocol": "T cell cultures (25,000-50,000 cells/well) were tested on pulsed autologous monocytes or irradiated autologous EBVs for the recognition of HPV16 and 18 E6 and E7 peptides (5 μg/ml) and protein (10 μg/ml) in triplicate in a 3 day proliferation assay. After 48 hours supernatant was harvested and stored at −20° C. for cytokine analysis. During the last 16 hours of culture 0.5 μCi/well [^3H]thymidine was added to measure proliferation (van der Burg et al. 2001). Antigen specific IFNγ production was measured by ELISA as described earlier (van der Burg et al. 1999).\nFollowing the evaluation of HPV-specific reactivity, the 19 responding T cell lines were expanded by stimulation with cognate peptide, cytokine mix and feeder cells. Fifteen of these HPV-specific cultures could be sufficiently expanded for further analysis. The fine specificity of the HPV-specific T cells was determined in short-term stimulation assays using single peptides. Five cultures recognized 2 or more distinct peptides, whereas the other 10 cultures recognized a single peptide (FIG. 1B, Table 1). To assess the type of T cell that responded to antigenic stimulation, the T cell cultures were stimulated with their cognate peptide and protein antigens and the response was analyzed by intra-cellular IFNγ staining (FIG. 2). The majority of the TIL cultures contained HPV-specific CD4+ infiltrating T lymphocytes (n=13 patients, 13 different peptides recognized), whereas HPV-specific CD8^+ T cells infiltrating lymphocytes were found in 6 cultures. In 9 of the HPV-specific T cell lines only a CD4^+ T cell response was detected, in 4 T cell lines both CD4^+ T cells and CD8^+ T cells reacted and in 2 T cell lines only a CD8 T cells response was detected (Table 1, FIG. 2)."}, "[4]": {"tested_on": "HPV-specific CD4+ and CD8+ T cells", "test": "HLA restriction and minimal epitope (blocking antibodies, partially HLA matched APC, IFNγ ELISPOT)", "conditions": "HLA-A*0201-restricted tumor-infiltrating CD8+ T cells", "protocol": "MHC class II blocking experiments were performed as reported before using murine monoclonal antibodies against HLA-DR (B8.11.2), HLA-DQ (SPV.L3) and HLA-DP (B7/21) (van der Burg et al. 1999). Peptide-pulsed APC were incubated with anti-MHC class II antibodies for 2 hours prior to the addition of T cells.\nas §1, with “Analysis of HLA restriction of CD8 T cells was performed using 5 μg/ml 10-mer peptide pulsed PBMC or B-LCL co-cultured with equal numbers of T cells. IFNγ specific spots were stained according to the instructions of the manufacturer (Mabtech).” left out, “(BIOSYS). […]” for “(BIOSYS).”"}},
  "data": [
    {"substance": "E6127-158: HPV16 E6 amino acids 127-158, clinical-grade long peptide (DKKQRFHNIRGRWTGRCMSCCRSSRTRRETQL; Human papillomavirus type 16)", "values": [
      {"measurement": "response of CD8+ T cells isolated from the biopsy", "setting": "[1]; HD2, biopsy of pool 6", "result": "responded"}
    ]},
    {"substance": "HPV16 E6 41-62: 22-mer peptide, amino acids 41-62 of HPV16 E6 (KQQLLRREVYDFAFRDLCIVYR; UniProt P03126 41-62, looked up, fragment)", "values": [
      {"measurement": "type of T cell responding, intracellular IFNγ (FIG. 2)", "setting": "[2]", "result": "CD4^+ and CD8^+ T cell response"}
    ]},
    {"substance": "HPV16 E6109-140: HPV16 E6 amino acids 109-140, clinical-grade long peptide (RCINCQKPLCPEEKQRHLDKKQRFHNIRGRWT; Human papillomavirus type 16)", "values": [
      {"measurement": "response of CD8+ T cells isolated from the biopsy", "setting": "[1]; HD2, biopsy of pool 6", "result": "responded"}
    ]},
    {"substance": "HPV16E6 peptide 137-158: 22-mer peptide, amino acids 137-158 of HPV16 E6 (GRWTGRCMSCCRSSRTRRETQL; UniProt P03126 137-158, looked up, fragment)", "values": [
      {"measurement": "response of bulk culture to single peptide, proliferation and IFNγ production (FIG. 1B)", "setting": "[3]", "result": "responded"}
    ]},
    {"substance": "HPV16E6.37-68: amino acids 37-68 of HPV16 E6 protein (CVYCKQQLLRREVYDFAFRDLCIVYRDGNPYA; Human papillomavirus type 16)", "values": [
      {"measurement": "response of bulk culture to single peptide, proliferation and IFNγ production (FIG. 1B)", "setting": "[3]", "result": "responded"},
      {"measurement": "response of CD8+ T cells isolated from the biopsy", "setting": "[1]; subjects HD15 and HD16", "result": "responded"}
    ]},
    {"substance": "HPV16E7 peptide 71-92: 22-mer peptide, amino acids 71-92 of HPV16 E7 (STHVDIRTLEDLLMGTLGIVCP; UniProt P03129 71-92, looked up, fragment)", "values": [
      {"measurement": "response of bulk culture to single peptide, proliferation and IFNγ production (FIG. 1B)", "setting": "[3]", "result": "responded"}
    ]},
    {"substance": "HPV16E7.11-19: amino acids 11-19 of HPV16 E7 protein (IVLHLEPQN; Human papillomavirus type 16)", "values": [
      {"measurement": "reactivity of CD8+ T cells compared with HPV16 E7.11-20", "setting": "[4]", "result": "stronger reactivity"}
    ]},
    {"substance": "HPV18E7.21-42: amino acids 21-42 of HPV18 E7 protein (IPVDLLCHEQLSDSEEENDEID; Human papillomavirus type 18)", "values": [
      {"measurement": "response of bulk culture to single peptide, proliferation and IFNγ production (FIG. 1B)", "setting": "[3]", "result": "responded"}
    ]}
  ]
}
